According to PubChem BioAssay (NCI):
Values joined by “and” are separate entries in the source; they are usually repeats but may differ in a detail not shown here. Equal values may be shown once.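 Following 48 hours of exposure in 96-well plates, responses at five concentrations were used to interpolate endpoints linearly. At the GI50, growth is halved. TGI marks complete inhibition of growth.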

Columns and labels:
Assay in all cases: inhibition of tumour cell growth, NCI panel, 48 h
A498 renal = system: A498 renal
CCRF-CEM leukemia = system: CCRF-CEM leukemia
EKVX NSCLC = system: EKVX NSCLC
HCT-15 colon = system: HCT-15 colon
OVCAR-3 ovarian = system: OVCAR-3 ovarian
OVCAR-4 ovarian = system: OVCAR-4 ovarian
SF-268 CNS = system: SF-268 CNS
SK-MEL-2 melanoma = system: SK-MEL-2 melanoma
SK-MEL-5 melanoma = system: SK-MEL-5 melanoma
SNB-19 CNS = system: SNB-19 CNS

| Structure (SMILES) | GI50 (A498 renal) [µM] | TGI (A498 renal) [µM] | GI50 (CCRF-CEM leukemia) [µM] | TGI (CCRF-CEM leukemia) [µM] | GI50 (EKVX NSCLC) [µM] | TGI (EKVX NSCLC) [µM] | GI50 (HCT-15 colon) [µM] | TGI (HCT-15 colon) [µM] | GI50 (OVCAR-3 ovarian) [µM] | TGI (OVCAR-3 ovarian) | GI50 (OVCAR-4 ovarian) [µM] | TGI (OVCAR-4 ovarian) [µM] | GI50 (SF-268 CNS) [µM] | TGI (SF-268 CNS) [µM] | GI50 (SK-MEL-2 melanoma) [µM] | TGI (SK-MEL-2 melanoma) [µM] | GI50 (SK-MEL-5 melanoma) [µM] | TGI (SK-MEL-5 melanoma) [µM] | GI50 (SNB-19 CNS) [µM] | TGI (SNB-19 CNS) [µM] |
| --- | --- | --- | --- | --- | --- | --- | --- | --- | --- | --- | --- | --- | --- | --- | --- | --- | --- | --- | --- | --- |
| CCCCCCCCCCCCCCCCCC1=NC(C)(C)CN1C(C)(C)CO | 11.2 | 31.2 | 1.39 | 4.88 | 2.21 | 14 | 1.38 | 3.16 | 1.5 | 2.96 µM | 2.05 | 4.92 | 1.54 | 3.02 | 1.83 | 3.51 | 1.68 | 3.07 | 1.79 | 4.54 |
| COc1ccc(Cc2ccc3[nH]c(=O)cc(C)c3c2)cc1S(=O)(=O)O | – | > 100 | – | > 100 | – | > 100 | – | > 100 | – | > 100 µM | – | > 100 | – | > 100 | – | > 100 | – | > 100 | – | > 100 |
| O=C(O)c1nn(-c2ccc(Cl)cc2)c2c1C(=O)c1ccccc1C2=O | – | > 100 | – | > 100 | – | > 100 | – | > 100 | – | > 100 µM | – | > 100 | – | > 100 | – | > 100 | – | 53.6 | – | > 100 |
| CC(C)(C)c1cc[n+](C[n+]2ccc(C(C)(C)C)cc2)cc1 | – | > 100 | – | > 100 | – | > 100 | – | > 100 | – | > 100 µM | – | > 100 | – | > 100 | – | > 100 | – | > 100 | – | > 100 |
| CC1(C)N=C(N)N=C(N)N1c1cccc(CCCCc2ccc(Cl)c(S(=O)(=O)F)c2)c1 | 16.4 | 52.9 | 0.764 | 17.6 | 11.4 | 39.8 | 6.47 | > 100 | 5.58 | 18.5 µM | 11.8 | 29.6 | 1.47 | 16.2 | 8.53 | 25.4 | 0.612 | 12.9 | 3.3 | 18.4 |
| CN1C(c2ccccc2)CC(=NO)CC1c1ccccc1 (centres undefined) | – | > 100 | 29.2 | > 100 | – | > 100 | 41.1 | > 100 | 24.9 | > 100 µM and 77.3 µM | – | > 100 | – | > 100 | – | > 100 | 71.8 | > 100 | – | > 100 |
| FC(F)(F)c1cccc(Oc2ccc(Nc3ncnc4ccc(OCCCN5CCOCC5)cc34)cc2Cl)c1 | 2.37 | 12.8 | 2.77 | 11.2 | 0.872 | 8.47 | 1.48 | 3.16 | 1.46 | 3.56 µM | 2.52 | 12.7 | 2.06 | 6.82 | 2.54 | 6.1 | 1.75 | 3.15 | 2.34 | 7.15 |
